Counter-ions that a name gives are not always drawn.
What was measured:
mouse TAAR1 = mouse TAAR1 (Mus musculus (Mouse), UniProt Q923Y8); test: Radioligand binding assay on mouse TAAR1; conditions: mouse TAAR1, HEK-293 membranes; first value of the pair (before the slash); read-out: Ki (μM) mouse/rat
Protocol: (§1) For the construction of expression plasmids the coding sequences of human, rat and mouse TAAR 1 were amplified from genomic DNA essentially as described by Lindemann et al.. The Expand High Fidelity PCR System (Roche Diagnostics) was used with 1.5 mM Mg^2+ and purified PCR products were cloned into pCR2.1-TOPO cloning vector (Invitrogen) following the instructions of the manufacturer. PCR products were subcloned into the pIRESneo2 vector (BD Clontech, Palo Alto, Calif.), and expression vectors were sequence verified before introduction in cell lines.
(§2) HEK293 cells (ATCC # CRL-1573) were cultured essentially as described by Lindemann et al. (2005). For the generation of stably transfected cell lines HEK293 cells were transfected with the pIRESneo2 expression plasmids containing the TAAR coding sequences (described above) with Lipofectamine 2000 (Invitrogen) according to the instructions of the manufacturer, and 24 hrs post transfection the culture medium was supplemented with 1 mg/ml G418 (Sigma, Buchs, Switzerland). After a culture period of about 10 d clones were isolated, expanded and tested for responsiveness to trace amines (all compounds purchased from Sigma) with the cAMP Biotrak Enzyme immunoassay (EIA) System (Amersham) following the non-acetylation EIA procedure provided by the manufacturer.
Radioligand Binding Assay on Mouse TAAR1
(§3) Membrane Preparation and Radioligand Binding.
(§4) HEK-293 cells stably expressing mouse TAAR1 were maintained at 37° C. and 5% CO2 in DMEM high glucose medium, containing fetal calf serum (10%, heat inactivated for 30 min at 56° C.), penicillin/streptomycin (1%), and 375 μg/ml geneticin (Gibco). Cells were released from culture flasks using trypsin/EDTA, harvested, washed twice with ice-cold PBS (without Ca^2+ and Mg^2+), pelleted at 1′000 rpm for 5 min at 4° C., frozen and stored at −80° C. […] The homogenate was centrifuged at 48′000×g for 30 min at 4° C. Subsequently, the supernatant was removed and discarded, and the pellet resuspended in 20 ml HEPES-NaOH (20 mM, pH 7.4) containing 0.1 mM EDTA using the Polytron (20 s at 14′000 rpm). This procedure was repeated and the final pellet resuspended in HEPES-NaOH containing 0.1 mM EDTA and homogenized using the Polytron. Typically, aliquots of 2 ml membrane portions were stored at −80° C. With each new membrane batch the dissociation constant (Kd) was determined via a saturation curve. […] Nonspecific binding was defined as the amount of ^3[H]-(S)-4-[(ethyl-phenyl-amino)-methyl]-4,5-dihydro-oxazol-2-ylamine bound in the presence of 10 μM unlabeled ligand. All compounds were tested at a broad range of concentrations (10 pM to 10 μM) in duplicates. […] The 96 deep well plates were incubated for 1 hr at 4° C. Incubations were terminated by rapid filtration through Unifilter-96 plates (Packard Instrument Company) and glass filters GF/C (Perkin Elmer) presoaked for 1 hr in polyethylenimine (0.3%) and washed 3 times with 1 ml of cold binding buffer. After addition of 45 μl of Microscint 40 (PerkinElmer) the Unifilter-96 plate was sealed and after 1 hr the ratioactivity counted using a TopCount Microplate Scintillation Counter (Packard Instrument Company).

rat TAAR1 = rat TAAR1 (Rattus norvegicus (Rat), UniProt Q923Y9); test: Radioligand binding assay on rat TAAR1; conditions: rat TAAR1, HEK-293 membranes; second value of the pair (line below); read-out: Ki (μM) mouse/rat
Protocol: as §1, §2
Radioligand Binding Assay on Rat TAAR1
as §3
as §4, with “rat” for “mouse”

mouse TAAR1, sequence (Q923Y8 whole entry): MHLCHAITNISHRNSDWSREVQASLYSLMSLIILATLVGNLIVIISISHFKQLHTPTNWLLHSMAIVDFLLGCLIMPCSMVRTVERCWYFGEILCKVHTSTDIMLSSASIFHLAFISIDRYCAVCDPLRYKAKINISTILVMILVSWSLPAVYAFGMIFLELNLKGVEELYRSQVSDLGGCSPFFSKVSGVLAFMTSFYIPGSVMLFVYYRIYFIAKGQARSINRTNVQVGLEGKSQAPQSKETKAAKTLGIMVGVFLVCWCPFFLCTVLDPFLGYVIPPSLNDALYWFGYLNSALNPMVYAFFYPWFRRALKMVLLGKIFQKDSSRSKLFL
rat TAAR1, sequence (Q923Y9 whole entry): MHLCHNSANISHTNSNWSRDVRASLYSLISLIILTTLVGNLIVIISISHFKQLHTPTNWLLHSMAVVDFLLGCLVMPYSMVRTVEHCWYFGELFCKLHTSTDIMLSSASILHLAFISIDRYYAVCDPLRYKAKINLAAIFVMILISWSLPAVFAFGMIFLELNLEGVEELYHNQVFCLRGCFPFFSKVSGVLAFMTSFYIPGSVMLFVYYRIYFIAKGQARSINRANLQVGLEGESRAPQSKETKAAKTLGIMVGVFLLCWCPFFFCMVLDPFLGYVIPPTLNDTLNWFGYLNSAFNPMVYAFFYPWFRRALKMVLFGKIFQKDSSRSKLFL

Compound | Ki (mouse TAAR1) | Ki (rat TAAR1)
NC(=O)c1cc(C(=O)Nc2ccc([C@H]3CNCCO3)c(F)c2)cc(Cl)n1 [Example 116, (S)-6-Chloro-N4-(3-fluoro-4-(morpholin-2-yl)phenyl)pyridine-2,4-dicarboxamide hydrochloride] | 0.0512 µM | 0.162 µM
COc1ccc(C#N)cc1NC(=O)Nc1ccc([C@@H]2CNCCO2)cc1Cl [Example 45, (R)-1-(2-Chloro-4-(morpholin-2-yl)phenyl)-3-(5-cyano-2-methoxyphenyl)urea] | 0.0023 µM | 0.0044 µM
COc1cc(C(=O)Nc2ccc([C@H]3CNCCO3)cc2F)cc(C#N)n1 [Example 121, (S)-2-Cyano-N-(2-fluoro-4-(morpholin-2-yl)phenyl)-6-methoxyisonicotinamide hydrochloride] | 0.0145 µM | 0.0158 µM
Cn1nc(-c2ccccc2)cc1C(=O)Nc1ccc([C@@H]2CNCCO2)cc1F [Example 23, 2-Methyl-5-phenyl-2H-pyrazole-3-carboxylic acid ((R)-2-fluoro-4-morpholin-2-yl-phenyl)-amide] | 0.0254 µM | 0.0033 µM
N#Cc1ccc(NC(=O)Nc2ccc([C@@H]3CNCCO3)cc2Br)cn1 [Example 65, (R)-1-(2-bromo-4-(morpholin-2-yl)phenyl)-3-(6-cyanopyridin-3-yl)urea] | 0.0037 µM | 0.0218 µM
Cc1cc(C(=O)Nc2ccc([C@H]3CNCCO3)c(F)c2)cc(C#N)n1 [Example 115, (S)-2-Cyano-N-(3-fluoro-4-(morpholin-2-yl)phenyl)-6-methylisonicotinamide hydrochloride] | 0.029 µM | 0.0343 µM
O=C(Nc1ccc([C@H]2CNCCO2)cc1F)c1cnn(-c2ccc(OC(F)F)cc2)c1 [Example 76, (S)-1-(4-(Difluoromethoxy)phenyl)-N-(2-fluoro-4-(morpholin-2-yl)phenyl)-1H-pyrazole-4-carboxamide] | 0.0016 µM | 0.0018 µM
O=C(Nc1ccc(Cl)cn1)Nc1ccc([C@@H]2CNCCO2)cc1Cl [Example 55, (R)-1-(2-Chloro-4-(morpholin-2-yl)phenyl)-3-(5-chloropyridin-2-yl)urea] | 0.0012 µM | 0.0014 µM
O=C(Nc1ccc([C@H]2CNCCO2)c(F)c1)c1ccnc(C(F)(F)F)c1 [Example 87, (S)—N-(3-Fluoro-4-(morpholin-2-yl)phenyl)-2-(trifluoromethyl)isonicotinamide hydrochloride] | 0.0105 µM | 0.0202 µM
N#Cc1cc(NC(=O)Nc2ccc([C@@H]3CNCCO3)cc2F)ccc1F [Example 63, (R)-1-(3-Cyano-4-fluorophenyl)-3-(2-fluoro-4-(morpholin-2-yl)phenyl)urea] | 0.0014 µM | 0.0007 µM
O=C(Nc1ccc(Cl)nc1)Nc1ccc([C@@H]2CNCCO2)cc1Cl [Example 20, (R)-1-(2-Chloro-4-morpholin-2-yl-phenyl)-3-(6-chloro-pyridin-3-yl)-urea] | – | 0.005 µM
CCOc1ccc(C(=O)Nc2ccc([C@@H]3CNCCO3)c(F)c2)cn1 [Example 85, (R)-6-Ethoxy-N-(3-fluoro-4-(morpholin-2-yl)phenyl)nicotinamide hydrochloride] | 0.0033 µM | 0.0067 µM
O=C(Nc1ccc([C@H]2CNCCO2)cc1F)c1cnn(-c2ccc3c(c2)OC(F)(F)O3)c1 [Example 82, (S)-1-(2,2-Difluorobenzo[d][1,3]dioxol-5-yl)-N-(2-fluoro-4-(morpholin-2-yl)phenyl)-1H-pyrazole-4-carboxamide] | 0.0013 µM | 0.0016 µM
O=C(Nc1ccc([C@H]2CNCCO2)c(F)c1)c1cnn(-c2cncc(C(F)(F)F)n2)c1 [Example 127, (S)—N-(3-Fluoro-4-(morpholin-2-yl)phenyl)-1-(6-(trifluoromethyl)pyrazin-2-yl)-1H-pyrazole-4-carboxamide hydrochloride] | 0.007 µM | 0.0016 µM
CCOc1cc(C(=O)Nc2ccc([C@H]3CNCCO3)c(F)c2)ccn1 [Example 88, (S)-2-Ethoxy-N-(3-fluoro-4-(morpholin-2-yl)phenyl)isonicotinamide hydrochloride] | 0.0034 µM | 0.0458 µM
Cc1cc(C(=O)Nc2ccc([C@H]3CNCCO3)cc2F)cc(C(N)=O)n1 [Example 119, (S)—N4-(2-Fluoro-4-(morpholin-2-yl)phenyl)-6-methylpyridine-2,4-dicarboxamide hydrochloride] | 0.0844 µM | 0.687 µM
O=C(Nc1ccc(C(F)(F)F)nc1)Nc1ccc([C@@H]2CNCCO2)cc1F [Example 10, 1-((R)-2-Fluoro-4-morpholin-2-yl-phenyl)-3-(6-trifluoromethyl-pyridin-3-yl)-urea] | 0.0033 µM | 0.0033 µM
Cc1cc(C(=O)Nc2ccc([C@H]3CNCCO3)c(Cl)c2)cc(C#N)n1 [Example 112, (S)—N-(3-Chloro-4-(morpholin-2-yl)phenyl)-2-cyano-6-methylisonicotinamide hydrochloride] | 0.0259 µM | 0.0248 µM
O=C(Nc1ccc([C@H]2CNCCO2)cc1F)c1n[nH]c2cc(F)ccc12 [Example 2, 6-Fluoro-1H-indazole-3-carboxylic acid ((S)-2-fluoro-4-morpholin-2-yl-phenyl)-amide] | 0.0012 µM | 0.0009 µM
O=C(Nc1ccc([C@H]2CNCCO2)cc1F)c1ccn(-c2ccc(F)cc2)n1 [Example 13, 1-(4-Fluoro-phenyl)-1H-pyrazole-3-carboxylic acid ((S)-2-fluoro-4-morpholin-2-yl-phenyl)-amide] | 0.0011 µM | 0.0024 µM
N#Cc1cnc(-n2cc(C(=O)Nc3ccc([C@H]4CNCCO4)c(F)c3)cn2)cn1 [Example 131, (S)-1-(5-Cyanopyrazin-2-yl)-N-(3-fluoro-4-(morpholin-2-yl)phenyl)-1H-pyrazole-4-carboxamide hydrochloride] | 0.0254 µM | 0.0144 µM
O=C(Nc1ccc(Cl)nc1)Nc1ccc([C@H]2CNCCO2)cc1Cl [Example 19, (S)-1-(2-Chloro-4-morpholin-2-yl-phenyl)-3-(6-chloro-pyridin-3-yl)-urea] | – | 0.0034 µM
N#Cc1cc(C2CNCCO2)ccc1NC(=O)c1ccn(-c2ccc(F)cc2)n1 (racemic) [Example 28, (RS)—N-(2-Cyano-4-(morpholin-2-yl)phenyl)-1-(4-fluorophenyl)-1H-pyrazole-3-carboxamide] | 0.014 µM | –
N#Cc1cccc(NC(=O)Nc2ccc(C3CNCCO3)cc2C#N)c1 (racemic) [Example 33, (RS)-1-(2-Cyano-4-morpholin-2-yl-phenyl)-3-(3-cyano-phenyl)-urea] | – | 1.51 µM
O=C(Nc1ccc(Cl)nc1)Nc1ccc(C2CNCCO2)cc1Cl (racemic) [Example 14, (RS)-1-(2-Chloro-4-morpholin-2-yl-phenyl)-3-(6-chloro-pyridin-3-yl)-urea] | – | 0.0039 µM

Reference: patent US9029370B2, “Substituted benzamide derivatives” (Hoffmann-La Roche Inc., priority 2011, dated 2015)
